The values that follow come from ChEMBL document CHEMBL1158453 (J Med Chem, 2009).

Series [1] concerns Rattus norvegicus. Nature of the series: Oral bioavailability in Wistar rat assessed as metformin level at 100 mg/kg. Type of series: ADME, organism-based. As to conditions: in vivo.
Series [2] in a line: Chemical stability in 50 mM borate buffer at pH 9.0 at 37 degC assessed as compound degradation to metformin after 4 weeks by HPLC. Type of series: physicochemical. The settings on record: read-out: Activity.
The nature of series [3]: Chemical stability in 50 mM HCl buffer at pH 1.0 at 37 degC assessed as half life by HPLC. Type of series: physicochemical.
Series [4] in a line: Chemical stability in 50 mM acetate buffer at pH 4.0 at 37 degC assessed as compound degradation to metformin after 4 weeks by HPLC. It is filed as physicochemical. As to conditions: read-out: Activity.
Series [5] is described as follows: Octanol-water distribution coefficient, log D at pH 7.4 by HPLC. Type of series: physicochemical.
Series [6] in a line: Metabolic stability in human serum assessed as compound degradation to metformin after 24 hrs by HPLC. The settings on record: read-out: Activity. Type of series: ADME, cell-free.
For series [7], the system named is Rattus norvegicus. Kind of series: AUC (0 to infinity) in Wistar rat plasma assessed as metformin level at 100 mg/kg, po. Type of series: ADME, organism-based. The arrangement: time infinity, dose 100 mg/kg, route oral. As to conditions: in vivo.
Series [8] concerns Rattus norvegicus. Kind of series: Cmax in Wistar rat plasma assessed as metformin level at 100 mg/kg, po. Type of series: ADME, organism-based. Also noted: dose 100 mg/kg, route oral. The settings on record: in vivo.
Series [9] relates to Rattus norvegicus. Nature of the series: Tmax in Wistar rat plasma assessed as metformin level at 100 mg/kg, po. Also noted: dose 100 mg/kg, route oral. Type of series: ADME, organism-based. The settings on record: in vivo.
Series [10] deals with Rattus norvegicus. Nature of the series: Cmax in Wistar rat plasma assessed as metformin level at 67 mg/kg, iv. It is filed as ADME, organism-based. The arrangement: dose 67 mg/kg, route intravenous. As to conditions: in vivo.
The nature of series [11]: Chemical stability in 15 mM hydrogen peroxide solution at pH 7.4 at 37 degC assessed as half life by HPLC. It is filed as physicochemical.
For series [12], the system named is Rattus norvegicus. Nature of the series: AUC (0 to infinity) in Wistar rat plasma assessed as metformin level at 67 mg/kg, iv. It is filed as ADME, organism-based. Also noted: time infinity, dose 67 mg/kg, route intravenous. As to conditions: in vivo.
A short description of series [13]: Octanol-water distribution coefficient, log D at pH 4 by HPLC. Type of series: physicochemical.
The nature of series [14]: Metabolic stability in rat serum assessed as compound degradation to metformin after 24 hrs by HPLC. Type of series: ADME, cell-free. As to conditions: read-out: Activity.
A short description of series [15]: Metabolic stability in 20% rat liver homogenate assessed as compound degradation to metformin after 24 hrs by HPLC. It is filed as ADME, tissue-based. As to conditions: 20% liver homogenate, read-out: Activity.
Series [16] is described as follows: Chemical stability in 50 mM phosphate buffer at pH 7.4 at 37 degC assessed as compound degradation to metformin after 4 weeks by HPLC. The settings on record: read-out: Activity. It is filed as physicochemical.
The test system of series [17] is Rattus norvegicus. Kind of series: Tmax in Wistar rat plasma assessed as metformin level at 67 mg/kg, iv. The settings on record: in vivo. Also noted: dose 67 mg/kg, route intravenous. It is filed as ADME, organism-based.
A short description of series [18]: Chemical stability in 50 mM phosphate buffer at pH 7.4 at 37 degC assessed as half life by HPLC. Type of series: physicochemical.
A short description of series [19]: Chemical stability in 50 mM acetate buffer at pH 4.0 at 37 degC assessed as half life by HPLC. Type of series: physicochemical.
Series [20] is described as follows: Chemical stability in 50 mM borate buffer at pH 9.0 at 37 degC assessed as half life by HPLC. Type of series: physicochemical.
The nature of series [21]: Metabolic stability in 20% rat liver homogenate assessed as half life by HPLC. It is filed as ADME, tissue-based. As to conditions: 20% liver homogenate.
Series [22] can be described thus: Metabolic stability in rat serum assessed as half life by HPLC. It is filed as ADME, cell-free.
In series [23] the test system is Serum. Kind of series: Metabolic stability in human serum assessed as half life by HPLC. It is filed as ADME, cell-free.
Series [24] can be described thus: in vivo. As to conditions: Wistar, rat, plasma, po, 140 mg/kg.
Description: Cmax in Wistar rat plasma at 140 mg/kg, po
Series [25] can be described thus: in vivo. As to conditions: Wistar, rat, plasma, po, 140 mg/kg. The source holds these as a separate data set.
Description: Tmax in Wistar rat plasma at 140 mg/kg, po
Series [26] can be described thus: Tmax in Wistar rat plasma at 35 mg/kg, iv. Also noted: dose 35 mg/kg, route intravenous. Type of series: ADME, organism-based.
The subject of series [27] is Rattus norvegicus. Kind of series: AUC (0 to infinity) in Wistar rat plasma at 35 mg/kg, iv. Type of series: ADME, organism-based. Also noted: time infinity, dose 35 mg/kg, route intravenous. As to conditions: in vivo.
Series [28] can be described thus: in vivo. The settings on record: Wistar, rat, plasma, po, 140 mg/kg. The source holds these as a separate data set.
Description: AUC (0 to infinity) in Wistar rat plasma at 140 mg/kg, po
Series [29] is described as follows: Cmax in Wistar rat plasma at 35 mg/kg, iv. Type of series: ADME, organism-based. Also noted: dose 35 mg/kg, route intravenous.

`CN(C)C(=N)/N=C(\N)NSC1CCCCC1`: in [1], the F is recorded as 64.5%. The degraded at 672 h in [2] turned out to be 40%; in series [4], 10%; in [16], 10%. Also, the half-life turned out to be 478 min in series [3] and 35.8 min in series [11]. For the same molecule, the logD was 0.49 in series [5] and -1.1 in series [13]. The metabolised at 24 h in series [6], in series [14] and in series [15] was 10% each time. The figures for the AUC in series [7] and in [12] were 275 µg·min/mL and 291 µg·min/mL, respectively. The results for the Cmax in series [8] and in [10] were 1300 ng/mL and 3000 ng/mL, respectively. Moreover, the Tmax in series [9] worked out at 60 min; in series [17], 10 min.

`CN(C)C(=N)/N=C(\N)NSc1ccccc1`: the half-life in series [3] was 12.1 min; in series [18], 78.6 h; in series [19], 78.6 h; in [20] it was 18.1 min; in series [21], 0.25 min; in series [11] it was 14.2 min. The half-life in series [22] turned out to be 36.8 min. Also, the logD in series [5] was -0.76; in [13], -0.7. Moreover, the t1/2 in series [23] stood at 0.0623 min.

With `CN(C)C(=N)N=C(N)N` [METFORMIN], the values for the Cmax in series [24] and in [29] were 1700 ng/mL and 20900 ng/mL, respectively. For the same molecule, the values for the Tmax in series [25] and in series [26] were 50 min and 1 min, respectively. In series [27], this molecule gave an AUC of 170 µg·min/mL. The molecule also gave an AUC(0-inf) in series [28] of 4820 ng·h/mL.
